The test has as its system ob/ob mouse. Kind of test: Leptin administration for four weeks in ob/ob mouse, bone measured by peripheral quantitative computerized tomography. Type of test: in vivo. From the text: Administration of leptin for four weeks increased femur length by 6% and increased cortical bone volumetric content by 18%, as determined by peripheral quantitative computerized tomography.

Setting [1] is: peripheral quantitative computerized tomography.

Consider “leptin: a product of the obese gene, a 16 kDa protein produced by mature adipocytes and secreted in plasma”, for which the “increase in femur length” value is 6%. Besides, under setting [1], the bone volumetric density result is given as “unchanged” and the “increase in cortical bone volumetric content” value was found to be 18%.

Values taken from patent US6352970B1, “Treatment of skeletal disorders” (Pfizer Inc., priority 1998, dated 2002).
